These results are taken from patent US20260008818A1, “CYCLIC PEPTIDE OR SALT THEREOF, AND USES THEREOF” (FUJIFILM Corporation, priority 2023, published 2026).

Numbered stars: 1 amine (or outer) side, 2 acyl side, 3 side chain; on linkers, the order of the positions; unused ones are H or OH. Bridge positions count the residues as written; N and C are the ends. Square brackets hold non-standard residues; d marks the D form. Ends that are not written are not given here. I, II: the chains in the order shown. ξ: configuration not given here. ξY = NC(Cc1ccc(O)cc1)C(=O)O; ξR = N=C(N)NCCCC(N)C(=O)O; Dap = NC[C@H](N)C(=O)O; X1 = O=C(C[*:1])[*:2]; ξK = NCCCCC(N)C(=O)O; ξP = O=C(O)C1CCCN1; ξC = NC(CS)C(=O)O

One assay has as its system bovine myoblasts. Description: Bovine cell (myoblast) proliferation-promoting effect. In kind it is cell-based, Japanese Black cattle. Conditions: 0.03 to 10 nmol/L, 4 days; viable cells normalized to 30 ng/mL bFGF = 100, negative control = 0. On the procedure:
The bovine cells (myoblasts) proliferation-promoting effect of the cyclic peptide complex was evaluated.
Bovine myoblasts were separated from bovine muscle tissue by the following method. First, muscle tissue of Japanese Black cattle was finely chopped in HBSS (−) (phenol red-free) (FUJIFILM Wako Pure Chemical Corporation, 085-09355), and then pronase from Streptomyces griseus (Sigma-Aldrich, 10165921001) was added thereto to a final concentration of 1 mg/mL, and the mixture was allowed to stand at 37° C. for 1 hour. After allowing to stand, HBSS containing 10% FBS was added thereto, and the cells were acquired by centrifugation. The acquired cells were suspended in D-MEM (high glucose) (containing L-glutamine and phenol red) (FUJIFILM Wako Pure Chemical Corporation, 044-29765) containing 10% final concentration of bovine serum and 30 ng/mL bFGF. Suspended cells were cultured in a culture flask coated with an iMatrix-511 solution (FUJIFILM Wako Pure Chemical Corporation, 381-07363) at 0.55 μg/cm^2. […]
The evaluation of the proliferation-promoting effect on bovine myoblasts was performed by the following method. […] The number of viable cells was calculated from the imaging data and normalized by setting the number of viable cells in the well to which 30 ng/mL bFGF was added to 100, and setting the number of viable cells in the negative control well to 0.

The subject of assay [1] is hMSC-Human Mesenchymal Stem Cells. Description: Mesenchymal stem cell (MSC) proliferation-promoting effect. In kind it is cell-based. The note with it: 0.001 to 3 nmol/L, bFGF-free custom culture medium; viable cells normalized to 1 nmol/L bFGF = 100, negative control = 0. On the procedure: The mesenchymal stem cell (MSC) proliferation-promoting effect of the cyclic peptide complex was evaluated.
The MSC was activated and subcultured according to the recommended protocol of FUJIFILM Irvine Scientific, Inc. using hMSC-Human Mesenchymal Stem Cells (Lonza, PT-2501) and PRIME-XV MSC Expansion XSFM (FUJIFILM Irvine Scientific, Inc., 91149) as a culture medium. MSCs that had been subcultured 1 to 4 times were used for the evaluation.
The evaluation of the proliferation-promoting effect of MSC was performed by the following method. First, a culture medium (hereinafter, referred to as a custom culture medium) in which bFGF was removed from PRIME-XV MSC Expansion XSFM (FUJIFILM Irvine Scientific, Inc., 91149) was prepared. Next, Prime-XV Human Fibronectin (FUJIFILM Irvine Scientific, Inc., 31002) was dissolved in PBS (Fujifilm Wako Pure Chemical Corporation, 164-23551), 2 μg/cm^2 of the solution was added to a 96-well plate used for evaluation, and the 96-well plate was allowed to stand at room temperature for 3 hours to coat the 96-well plate with fibronectin. […] The number of viable cells was calculated from the imaging data and normalized by setting the number of viable cells in the well to which 1 nmol/L bFGF was added to 100, and setting the number of viable cells in the negative control well to 0.

Assay [2] has the same test system. Description: Effect of maintaining MSC undifferentiated potency (gene expression). In kind it is cell-based. Conditions: cyclic peptide complex 3 nmol/L or bFGF 1 nmol/L, normalized to 1 nmol/L bFGF = 1, bFGF compared with negative control. On the procedure: The effect of maintaining mesenchymal stem cell (MSC) undifferentiated potency of the cyclic peptide complex was evaluated.
MSC was prepared in the same manner as in Example 7.
The evaluation of the effect of maintaining the MSC undifferentiated potency was performed by the following method. First, a culture medium (hereinafter, referred to as a custom culture medium) in which bFGF was removed from PRIME-XV MSC Expansion XSFM (FUJIFILM Irvine Scientific, Inc., 91149) was prepared. Next, Prime-XV Human Fibronectin (FUJIFILM Irvine Scientific, Inc., 31002) was dissolved in PBS (Fujifilm Wako Pure Chemical Corporation, 164-23551), 2 μg/cm^2 of the solution was added to a 12-well plate used for proliferation, and the 12-well plate was allowed to stand at room temperature for 3 hours to coat the 12-well plate with fibronectin. Thereafter, the MSCs subjected to the subculture were peeled using Tryple Express (Thermo, 12604-013), washed once with a custom culture medium, suspended in a custom culture medium in which a cyclic peptide complex or bFGF (R&D Systems, 3718-GMP) was diluted to final concentrations of 3 nmol/L and 1 nmol/L, and seeded on a 12-well plate coated with fibronectin. In this case, conditions in which the cyclic peptide complex and bFGF were not added as a negative control were prepared. After culturing at 37° C. (5% CO2) for 2 nights, the culture medium was replaced by removing the supernatant of the culture medium and adding the same amount of a culture medium prepared to have the same composition as the removed culture medium. After further culturing at 37° C. (5% CO2) for 2 nights, RNA was extracted using an RNeasy Plus Mini Kit (Qiagen, 74136) according to the manufacturer's protocol. […] The expression level of each gene was normalized by setting the expression level of the well to which 1 nmol/L bFGF was added to 1.

On to “I: H[ξC]SYERLEFHGHEAPFRV[ξK]V[Dap]-NH2 / II: HCS[ξY]E[ξR]LQFHGHEA[ξP]FRVK[dV] (linker I:2-I:19, II:2-II:19 via X1; amide I:21-II:C) [SEQ ID NO: 393, (H-(C)-SYERLQFHGHEAPFRV-(K(acetyl))-V)2-Dap]”, for which the “bovine myoblast proliferation action” value with bovine myoblasts was “about 80%”. In addition, the MSC proliferation action result in assay [1] is “the same degree of MSC proliferation action as bFGF”. Also, the “expression level of Sox2” value in assay [2] was “the same degree of a gene expression level as bFGF”.
